Assays:
Assay in all cases: relative viability (nuclei count vs DMSO), 5 days (fraction); higher = more cells survive
201T = test system: 201T
In short: (§1)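 After 5 days of treatment, lung cancer cells in 1536-well plates were fixed and stained in a single step (final 0.05% Triton X-100, 1% formaldehyde, 1 ug/ml Hoechst) and their nuclei counted on 4× images. Treatment had been applied by pin tool the day after seeding as one drug alone or as a fixed anchor-drug dose with five library-drug doses (not always all listed) in √10 steps. Relative viability is the nuclei count of treated wells divided by that of vehicle wells, and values are medians of duplicate plates.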

BEN = test system: BEN
In short: as §1

COR-L 105 = test system: COR-L 105
In short: as §1

EKVX = test system: EKVX
In short: as §1

EPLC-272H = test system: EPLC-272H
In short: as §1

H3255 = test system: H3255
In short: as §1

HCC-44 = test system: HCC-44
In short: as §1

HCC-827 = test system: HCC-827
In short: as §1

LCLC-97TM1 = test system: LCLC-97TM1
In short: as §1

LOU-NH91 = test system: LOU-NH91
In short: as §1

LU99A = test system: LU99A
In short: as §1

NCI-H1437 = test system: NCI-H1437
In short: as §1

NCI-H1666 = test system: NCI-H1666
In short: as §1

NCI-H1975 = test system: NCI-H1975
In short: as §1

NCI-H2085 = test system: NCI-H2085
In short: as §1

NCI-H2087 = test system: NCI-H2087
In short: as §1

NCI-H2170 = test system: NCI-H2170
In short: as §1

NCI-H647 = test system: NCI-H647
In short: as §1

NCI-H650 = test system: NCI-H650
In short: as §1

PC-3 [JPC-3] = test system: PC-3 [JPC-3]
In short: as §1

SW 1573 = test system: SW 1573
In short: as §1

CC(=O)O[C@@]12CO[C@@H]1C[C@H](O)[C@@]1(C)C(=O)[C@H](O)C3=C(C)[C@@H](OC(=O)[C@H](O)[C@@H](NC(=O)OC(C)(C)C)c4ccccc4)C[C@@](O)([C@@H](OC(=O)c4ccccc4)[C@H]21)C3(C)C [Docetaxel] + CS(=O)(=O)N1CCN(Cc2cc3nc(-c4cccc5[nH]ncc45)nc(N4CCOCC4)c3s2)CC1 [Pictilisib] (partner 1 µM)
relative viability (201T; first compound 0.0002 µM): 0.683 | relative viability (201T; first compound 0.000632 µM): 0.672 | relative viability (201T; first compound 0.002 µM): 0.557 | relative viability (201T; first compound 0.006325 µM): 0.567 | relative viability (201T; first compound 0.02 µM): 0.289 | relative viability (BEN; first compound 0.0002 µM): 0.479 | relative viability (BEN; first compound 0.000632 µM): 0.504 | relative viability (BEN; first compound 0.006325 µM): 0.23 | relative viability (BEN; first compound 0.02 µM): 0.169 | relative viability (COR-L 105; first compound 0.0002 µM): 0.392 | relative viability (COR-L 105; first compound 0.000632 µM): 0.37 | relative viability (COR-L 105; first compound 0.002 µM): 0.278 | relative viability (COR-L 105; first compound 0.006325 µM): 0.228 | relative viability (COR-L 105; first compound 0.02 µM): 0.294 | relative viability (EKVX; first compound 0.0002 µM): 0.447 | relative viability (EKVX; first compound 0.000632 µM): 0.45 | relative viability (EKVX; first compound 0.002 µM): 0.26 | relative viability (EKVX; first compound 0.006325 µM): 0.187 | relative viability (EKVX; first compound 0.02 µM): 0.119 | relative viability (EPLC-272H; first compound 0.0002 µM): 0.27 | relative viability (EPLC-272H; first compound 0.000632 µM): 0.198 | relative viability (EPLC-272H; first compound 0.002 µM): 0.161 | relative viability (EPLC-272H; first compound 0.006325 µM): 0.111 | relative viability (EPLC-272H; first compound 0.02 µM): 0.126 | relative viability (H3255; first compound 0.0002 µM): 0.395 | relative viability (H3255; first compound 0.000632 µM): 0.544 | relative viability (H3255; first compound 0.002 µM): 0.272 | relative viability (H3255; first compound 0.006325 µM): 0.21 | relative viability (H3255; first compound 0.02 µM): 0.195 | relative viability (HCC-44; first compound 0.0002 µM): 0.406 | relative viability (HCC-44; first compound 0.000632 µM): 0.44 | relative viability (HCC-44; first compound 0.002 µM): 0.421 | relative viability (HCC-44; first compound 0.006325 µM): 0.144 | relative viability (HCC-44; first compound 0.02 µM): 0.0949 | relative viability (HCC-827; first compound 0.0002 µM): 0.904 | relative viability (HCC-827; first compound 0.000632 µM): 1.08 | relative viability (HCC-827; first compound 0.002 µM): 0.787 | relative viability (HCC-827; first compound 0.006325 µM): 0.466 | relative viability (HCC-827; first compound 0.02 µM): 0.363 | relative viability (LCLC-97TM1; first compound 0.000632 µM): 0.206 | relative viability (LCLC-97TM1; first compound 0.002 µM): 0.113 | relative viability (LCLC-97TM1; first compound 0.006325 µM): 0.112 | relative viability (LCLC-97TM1; first compound 0.02 µM): 0.102 | relative viability (LOU-NH91; first compound 0.0002 µM): 0.524 | relative viability (LOU-NH91; first compound 0.000632 µM): 0.491 | relative viability (LOU-NH91; first compound 0.002 µM): 0.38 | relative viability (LOU-NH91; first compound 0.006325 µM): 0.318 | relative viability (LOU-NH91; first compound 0.02 µM): 0.339 | relative viability (LU99A; first compound 0.0002 µM): 0.337 | relative viability (LU99A; first compound 0.000632 µM): 0.249 | relative viability (LU99A; first compound 0.002 µM): 0.267 | relative viability (LU99A; first compound 0.006325 µM): 0.191 | relative viability (LU99A; first compound 0.02 µM): 0.148 | relative viability (NCI-H1437; first compound 0.0002 µM): 0.453 | relative viability (NCI-H1437; first compound 0.000632 µM): 0.366 | relative viability (NCI-H1437; first compound 0.002 µM): 0.132 | relative viability (NCI-H1437; first compound 0.006325 µM): 0.117 | relative viability (NCI-H1437; first compound 0.02 µM): 0.0671 | relative viability (NCI-H1666; first compound 0.0002 µM): 0.4 | relative viability (NCI-H1666; first compound 0.000632 µM): 0.431 | relative viability (NCI-H1666; first compound 0.002 µM): 0.273 | relative viability (NCI-H1666; first compound 0.006325 µM): 0.198 | relative viability (NCI-H1666; first compound 0.02 µM): 0.169 | relative viability (NCI-H1975; first compound 0.0002 µM): 0.3 | relative viability (NCI-H1975; first compound 0.000632 µM): 0.261 | relative viability (NCI-H1975; first compound 0.002 µM): 0.213 | relative viability (NCI-H1975; first compound 0.006325 µM): 0.156 | relative viability (NCI-H1975; first compound 0.02 µM): 0.121 | relative viability (NCI-H2085; first compound 0.0002 µM): 0.532 | relative viability (NCI-H2085; first compound 0.000632 µM): 0.467 | relative viability (NCI-H2085; first compound 0.002 µM): 0.41 | relative viability (NCI-H2085; first compound 0.006325 µM): 0.374 | relative viability (NCI-H2085; first compound 0.02 µM): 0.237 | relative viability (NCI-H2087; first compound 0.0002 µM): 0.841 | relative viability (NCI-H2087; first compound 0.000632 µM): 0.631 | relative viability (NCI-H2087; first compound 0.002 µM): 0.284 | relative viability (NCI-H2087; first compound 0.006325 µM): 0.34 | relative viability (NCI-H2087; first compound 0.02 µM): 0.193 | relative viability (NCI-H2170; first compound 0.0002 µM): 0.342 | relative viability (NCI-H2170; first compound 0.000632 µM): 0.288 | relative viability (NCI-H2170; first compound 0.002 µM): 0.183 | relative viability (NCI-H2170; first compound 0.006325 µM): 0.186 | relative viability (NCI-H647; first compound 0.0002 µM): 0.293 | relative viability (NCI-H647; first compound 0.000632 µM): 0.206 | relative viability (NCI-H647; first compound 0.002 µM): 0.138 | relative viability (NCI-H647; first compound 0.006325 µM): 0.117 | relative viability (NCI-H647; first compound 0.02 µM): 0.0727 | relative viability (NCI-H650; first compound 0.0002 µM): 0.75 | relative viability (NCI-H650; first compound 0.000632 µM): 0.48 | relative viability (NCI-H650; first compound 0.002 µM): 0.313 | relative viability (NCI-H650; first compound 0.006325 µM): 0.274 | relative viability (NCI-H650; first compound 0.02 µM): 0.207 | relative viability (PC-3 [JPC-3]; first compound 0.0002 µM): 0.693 | relative viability (PC-3 [JPC-3]; first compound 0.000632 µM): 0.715 | relative viability (PC-3 [JPC-3]; first compound 0.002 µM): 0.454 | relative viability (PC-3 [JPC-3]; first compound 0.006325 µM): 0.329 | relative viability (PC-3 [JPC-3]; first compound 0.02 µM): 0.229 | relative viability (SW 1573; first compound 0.0002 µM): 0.372 | relative viability (SW 1573; first compound 0.000632 µM): 0.314 | relative viability (SW 1573; first compound 0.002 µM): 0.196 | relative viability (SW 1573; first compound 0.006325 µM): 0.153 | relative viability (SW 1573; first compound 0.02 µM): 0.144

Reference: the supplement of paper PMC10307832
